The record followed here is US7119073B2, “Peptides and their use as inhibitors of hepatitis C virus ns3 protease” (Istituto Di Ricerche Di Biologia Molecolare P. Angeletti SpA, priority 2001, dated 2006).

Molecules are shown by their SMILES.

For the experiment, the target named is T1, full length NS3 protein noncovalently complexed with the full-length NS4A cofactor protein (NS3/NS4A complex) (Hepatitis C virus genotype 1b, UniProt P26663).
T1 construct: full length NS3 protein spanning residues 1027–1657 of the HCV polyprotein
T1 sequence (P26663 1027-1657): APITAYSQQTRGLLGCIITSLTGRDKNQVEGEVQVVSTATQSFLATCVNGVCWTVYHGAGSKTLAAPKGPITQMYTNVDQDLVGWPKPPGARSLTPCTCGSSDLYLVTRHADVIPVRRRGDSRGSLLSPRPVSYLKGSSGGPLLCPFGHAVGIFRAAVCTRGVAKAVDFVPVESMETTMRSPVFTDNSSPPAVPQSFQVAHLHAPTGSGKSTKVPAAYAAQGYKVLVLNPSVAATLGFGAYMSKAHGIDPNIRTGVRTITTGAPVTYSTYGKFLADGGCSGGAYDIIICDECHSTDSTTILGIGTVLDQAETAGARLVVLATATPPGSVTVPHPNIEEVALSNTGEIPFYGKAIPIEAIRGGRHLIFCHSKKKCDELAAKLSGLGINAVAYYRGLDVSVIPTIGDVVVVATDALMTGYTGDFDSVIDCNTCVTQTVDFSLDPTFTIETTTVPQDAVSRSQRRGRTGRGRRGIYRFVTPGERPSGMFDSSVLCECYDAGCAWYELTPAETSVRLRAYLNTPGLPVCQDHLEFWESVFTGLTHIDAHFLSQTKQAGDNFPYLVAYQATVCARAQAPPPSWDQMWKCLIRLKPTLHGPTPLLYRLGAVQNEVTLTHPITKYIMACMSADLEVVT
T1 sequence (P26663 1658-1711): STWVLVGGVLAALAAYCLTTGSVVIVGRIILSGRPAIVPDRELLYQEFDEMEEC
The experiment in a line: Full-length NS3-NS4A heterodimer protein assay (Assay A). It counts as biochemical, hepatitis C virus (HCV). The note with it: Table 5; full-length NS3/NS4A; read-out: AssayA. The procedure: Full-Length NS3-NS4A Heterodimer Protein Assay (Assay A)
(Gallinari, P., Paolini, C., Brennan, D., Nardi, C., Steinkühler, C. and De Francesco, R. Modulation of hepatitis C virus NS3 protease and helicase activities through the interaction with NS4A. Biochemistry 38, 5620–5632, 1999)
In this assay the full length NS3 protein spanning residues 1027–1657 of the HCV polyprotein, noncovalently complexed with the full-length NS4A cofactor protein (residues 1658–1711) was used. Assays were performed in 60 μl of a buffer containing 50 mM Hepes pH 7.5, 0.15 M NaCl, 0.1% (v/v) Triton X-100, 15% (v/v) glycerol, 10 mM DTT, 2 nM NS3/NS4A complex. To this assay mix 10 μM (final concentration) of a peptide substrate corresponding to the NS5AB cleavage site and having the sequence of the NS5A-NS5B peptide, were added. Incubation times at 23° C. were adjusted to obtain <10% conversion. Reactions were stopped by the addition of 40 μl of 1% TFA. Cleavage was determined by HPLC using a Merck-Hitachi chromatograph equipped with an autosampler. 80 μl samples were injected on a Lichrospher C18 reversed phase cartridge column (4×74 mm, 5 μm, Merck) and fragments were separated using a 10–40% acetonitrile gradient at 5%/min using a flow rate of 2.5 ml/min. Peak detection was done by monitoring both the absorbance at 220 nm and tryptophan fluorescence (λex=280 nm, λem=350 nm). Cleavage products were quantitated by integration of chromatograms with respect to appropriate standards. Kinetic parameters were calculated from nonlinear least-squares fit of initial rates as a function of substrate concentration with the help of a Kaleidagraph software, assuming Michaelis-Menten kinetics.
Ki values of peptide inhibitors were calculated from substrate titration experiments performed in the presence of increasing amounts of inhibitor. Experimental data sets were simultaneously fitted to eg.1 using a multicurve fit macro with the help of a Sigmaplot software: V=(VmaxS)/(Km([…])+S); (eq.1) Alternatively, Ki values were derived from IC50 values, calculated using a four-parameter logistic function, according to eq.2: IC50=(1+S/Km)Ki (eq.2)
For the compound `COC(=O)c1ccc(CCNC(=O)[C@H](CS)NC(=O)[C@@H]2C[C@@H](c3ccccc3)CN2C(=O)[C@H](CCC(=O)O)NS(=O)(=O)c2cccc3ccccc23)cc1` [Compound 514], the IC50 is less than 100 µM.

In the case of `O=C(O)CC[C@H](NC(=O)[C@@H](O)c1ccccc1)C(=O)N1C[C@H](c2ccccc2)C[C@H]1C(=O)N[C@@H](CS)C(=O)NCCc1ccc(C(=O)O)cc1` [Compound 515], the IC50 was less than 100 µM.

On to `CC(C)COC(=O)N[C@H](C(=O)N1C[C@H](c2ccccc2)C[C@H]1C(=O)N[C@@H](CS)C(=O)NCCc1ccc(C(=O)O)cc1)C(C)C` [Compound 516], for which the IC50 was less than 10 µM.

On to `CC(C)COC(=O)N[C@H](C(=O)N1C[C@H](c2ccccc2)C[C@H]1C(=O)N[C@@H](CC(F)F)C(=O)NCCc1ccc(C(=O)O)cc1)C(C)C` [Compound 517], for which the IC50 was less than 10 µM.

Consider `CC(C)COC(=O)N[C@H](C(=O)N1C[C@H](c2ccccc2)C[C@H]1C(=O)N[C@@H](CC(F)F)C(=O)NCCc1ccc(-c2nn[nH]n2)cc1)C(C)C` [Compound 518], for which the IC50 is less than 10 µM.

`CC(C)COC(=O)N[C@H](C(=O)N1C[C@H](c2ccccc2)C[C@H]1C(=O)N[C@@H](CC(F)F)C(=O)NCCc1ccc(-c2noc(=O)[nH]2)cc1)C(C)C` [Compound 519]: the IC50 was less than 100 µM.

Regarding `CC(C)COC(=O)N[C@@H](CCC(=O)O)C(=O)N1C[C@H](c2ccccc2)C[C@H]1C(=O)N[C@@H](CS)C(=O)NCCc1ccc(C(=O)O)cc1Cl` [Compound 520], the IC50 was less than 10 µM.

`CC(C)COC(=O)N[C@H](C(=O)N1C[C@H](c2ccccc2)C[C@H]1C(=O)N[C@@H](CS)C(=O)NCCc1ccc(C(=O)O)cc1Cl)C(C)C` [Compound 521]: the IC50 is less than 1 µM.

`CC(C)COC(=O)N[C@H](C(=O)N1C[C@H](c2ccccc2)C[C@H]1C(=O)N[C@@H](CC(F)F)C(=O)NCCc1c(F)cc(C(=O)OC(C)C)cc1F)C(C)C` [Compound 524]: the IC50 is less than 100 µM.

As to `CC[C@H](NC(=O)[C@@H]1C[C@@H](c2ccccc2)CN1C(=O)[C@@H](NC(=O)OCC(C)C)C(C)C)C(=O)NCCc1c(F)cc(C(=O)O)cc1F` [Compound 525], the IC50 is less than 100 µM.

On to `CC(C)COC(=O)N[C@H](C(=O)N1C[C@H](OCc2ccccc2)CC1C(=O)N[C@@H](CC(F)F)C(=O)NCCc1c(F)cc(C(=O)O)cc1F)C(C)C` (stereo partly drawn) [Compound 526], for which the IC50 was less than 1 µM.

`CC(C)COC(=O)N[C@H](C(=O)N1C[C@@H](OCc2ccccc2)C[C@H]1C(=O)N[C@@H](CC(F)F)C(=O)NCCc1c(F)cc(C(=O)O)cc1F)C(C)C` [Compound 527]: the IC50 is less than 10 µM.

Regarding `CC(C)COC(=O)N[C@H](C(=O)N1C[C@H](C2CCCCC2)C[C@H]1C(=O)N[C@@H](CC(F)F)C(=O)NCCc1c(F)cc(C(=O)O)cc1F)C(C)C` [Compound 528], the IC50 is less than 1 µM.

As for `CC(C)COC(=O)N[C@H](C(=O)N1C[C@H](C2CCCCC2)C[C@H]1C(=O)N[C@@H](CC(F)(F)F)C(=O)NCCc1c(F)cc(C(=O)O)cc1F)C(C)C` [Compound 529], the IC50 is less than 10 µM.

For `CC(C)COC(=O)N[C@H](C(=O)N1C[C@H](OCc2ccccc2)C[C@H]1C(=O)N[C@@H](CC(F)(F)F)C(=O)NCCc1c(F)cc(C(=O)O)cc1F)C(C)C` [Compound 530], the IC50 is less than 10 µM.

As for `CC(C)COC(=O)N[C@H](C(=O)N1C[C@H](C2CCCCC2)C[C@H]1C(=O)N[C@@H](CC(F)F)C(=O)NCCc1ccc(C(=O)O)cc1F)C(C)C` [Compound 531], the IC50 was less than 10 µM.

`CC(C)COC(=O)N[C@H](C(=O)N1C[C@H](C2CCCCC2)C[C@H]1C(=O)N[C@@H](CC(F)F)C(=O)NCCc1ccc(C(=O)O)cc1Cl)C(C)C` [Compound 532]: the IC50 was less than 1 µM.

Consider `CC[C@H](C)[C@H](NC(=O)OCC(C)C)C(=O)N1C[C@H](C2CCCCC2)C[C@H]1C(=O)N[C@@H](CC(F)F)C(=O)NCCc1c(F)cc(C(=O)O)cc1F` [Compound 533], for which the IC50 is less than 1 µM.

Consider `CC[C@H](C)[C@H](NC(=O)OCC(C)C)C(=O)N1C[C@H](c2ccccc2)C[C@H]1C(=O)N[C@@H](CC(F)F)C(=O)NCCc1c(F)cc(C(=O)O)cc1F` [Compound 534], for which the IC50 was less than 10 µM.

With `CC[C@@H](C)[C@H](NC(=O)OCC(C)C)C(=O)N1C[C@H](C2CCCCC2)C[C@H]1C(=O)N[C@@H](CC(F)F)C(=O)NCCc1c(F)cc(C(=O)O)cc1F` [Compound 535], the IC50 was less than 1 µM.

For `CC(C)COC(=O)N[C@H](C(=O)N1C[C@H](C2CCCCC2)C[C@H]1C(=O)N[C@@H](CC(F)F)C(=O)NCCc1c(F)cc(C(=O)O)cc1F)C(C)(C)C` [Compound 536], the IC50 is less than 10 µM.

Take `CC(C)COC(=O)N[C@H](C(=O)N1C[C@H](c2ccccc2)C[C@H]1C(=O)N[C@@H](CC(F)F)C(=O)NCCc1c(F)cc(C(=O)O)cc1F)C(C)(C)C` [Compound 537]: the IC50 was less than 10 µM.

On to `CC(C)COC(=O)N[C@H](C(=O)N1C[C@H](C2CCCCC2)C[C@H]1C(=O)N[C@@H](CC(F)F)C(=O)NCCc1c(F)cc(C(=O)O)cc1F)C1CCCC1` [Compound 538], for which the IC50 is less than 1 µM.

As to `CC(C)[C@H](NC(=O)OCC1CC1)C(=O)N1C[C@H](C2CCCCC2)C[C@H]1C(=O)N[C@@H](CC(F)F)C(=O)NCCc1c(F)cc(C(=O)O)cc1F` [Compound 540], the IC50 was less than 1 µM.

On to `CC(C)[C@H](NC(=O)OC1CCCC1)C(=O)N1C[C@H](C2CCCCC2)C[C@H]1C(=O)N[C@@H](CC(F)F)C(=O)NCCc1c(F)cc(C(=O)O)cc1F` [Compound 541], for which the IC50 is less than 1 µM.

With `CC(C)[C@H](NC(=O)OCC1CCCC1)C(=O)N1C[C@H](C2CCCCC2)C[C@H]1C(=O)N[C@@H](CC(F)F)C(=O)NCCc1c(F)cc(C(=O)O)cc1F` [Compound 542], the IC50 is less than 10 µM.

Take `CC(C)COC(=O)N[C@H](C(=O)N1C[C@H](SCc2ccccc2)C[C@H]1C(=O)N[C@@H](CC(F)F)C(=O)NCCc1c(F)cc(C(=O)O)cc1F)C(C)C` [Compound 544]: the IC50 is less than 10 µM.

With `COc1cccc(S[C@@H]2C[C@@H](C(=O)N[C@@H](CC(F)F)C(=O)NCCc3c(F)cc(C(=O)O)cc3F)N(C(=O)[C@@H](NC(=O)OCC(C)C)C(C)C)C2)c1` [Compound 545], the IC50 is less than 1 µM.

Regarding `COc1cccc(S(=O)(=O)[C@@H]2C[C@@H](C(=O)N[C@@H](CC(F)F)C(=O)NCCc3c(F)cc(C(=O)O)cc3F)N(C(=O)[C@@H](NC(=O)OCC(C)C)C(C)C)C2)c1` [Compound 547], the IC50 is less than 1 µM.

Consider `CCCS[C@@H]1C[C@@H](C(=O)N[C@@H](CC(F)F)C(=O)NCCc2c(F)cc(C(=O)O)cc2F)N(C(=O)[C@@H](NC(=O)OCC(C)C)C(C)C)C1` [Compound 548], for which the IC50 was less than 1 µM.

For the compound `CCC[S+]([O-])[C@@H]1C[C@@H](C(=O)N[C@@H](CC(F)F)C(=O)NCCc2c(F)cc(C(=O)O)cc2F)N(C(=O)[C@@H](NC(=O)OCC(C)C)C(C)C)C1` (stereo partly drawn) [Compound 549], the IC50 is less than 10 µM.

For the compound `CCCS(=O)(=O)[C@@H]1C[C@@H](C(=O)N[C@@H](CC(F)F)C(=O)NCCc2c(F)cc(C(=O)O)cc2F)N(C(=O)[C@@H](NC(=O)OCC(C)C)C(C)C)C1` [Compound 550], the IC50 is less than 1 µM.

For `CC(C)COC(=O)N[C@H](C(=O)N1C[C@H](S(=O)(=O)C2CCCCC2)C[C@H]1C(=O)N[C@@H](CC(F)F)C(=O)NCCc1c(F)cc(C(=O)O)cc1F)C(C)C` [Compound 553], the IC50 is less than 1 µM.
